These results are taken from BindingDB's records for doi:10.1021/acs.jmedchem.3c00926 (Yale University, 2023).

SMILES strings stand for the structures.

One assay deals with T1, Signal transducer and activator of transcription 3 (Homo sapiens, UniProt P40763). The experiment in a line: Inhibition of IL-23 induced STAT3 phosphorylation in human Jurkat cells incubated for 30 mins by microplate reader analysis.
T1 sequence (P40763 whole entry): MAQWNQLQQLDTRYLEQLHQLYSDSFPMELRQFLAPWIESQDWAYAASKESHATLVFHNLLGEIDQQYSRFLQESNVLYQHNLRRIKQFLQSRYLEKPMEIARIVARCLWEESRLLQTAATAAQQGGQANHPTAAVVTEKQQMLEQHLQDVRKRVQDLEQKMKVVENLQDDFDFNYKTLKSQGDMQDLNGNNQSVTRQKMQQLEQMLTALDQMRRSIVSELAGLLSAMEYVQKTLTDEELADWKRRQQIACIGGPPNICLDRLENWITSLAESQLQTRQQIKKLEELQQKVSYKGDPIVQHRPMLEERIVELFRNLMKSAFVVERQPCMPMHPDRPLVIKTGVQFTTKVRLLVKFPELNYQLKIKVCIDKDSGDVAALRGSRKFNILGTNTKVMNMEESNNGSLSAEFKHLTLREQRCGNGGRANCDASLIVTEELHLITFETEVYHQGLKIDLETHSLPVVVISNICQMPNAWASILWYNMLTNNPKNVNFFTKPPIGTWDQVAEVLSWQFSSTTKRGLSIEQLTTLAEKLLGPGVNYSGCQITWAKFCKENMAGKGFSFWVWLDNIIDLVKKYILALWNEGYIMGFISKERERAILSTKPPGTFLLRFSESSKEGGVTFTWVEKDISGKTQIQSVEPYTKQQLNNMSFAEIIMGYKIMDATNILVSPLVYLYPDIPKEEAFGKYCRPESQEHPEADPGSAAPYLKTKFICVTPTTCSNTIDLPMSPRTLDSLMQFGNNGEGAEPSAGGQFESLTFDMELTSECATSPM
`NC(=O)c1ccccc1Nc1cc(Nc2ccc(F)cn2)ncc1C(N)=O` showed an IC50 of 89 nM.

The target in another assay is T1, Signal transducer and activator of transcription 3. The experiment in a line: Inhibition of IL-23 induced STAT3 phosphorylation in human KIT225 cells by AlphaLISA assay. In general terms: Bead proximity is the source of the signal in Alpha formats.
Consider `CNC(=O)c1cnc(Nc2ccc(C#N)cn2)cc1Nc1cccc(-c2ncn(C)n2)c1OC`, for which the IC50 worked out at 13 nM.

On to `NC(=O)c1ccccc1Nc1cc(Nc2ccc(F)cn2)ncc1C(N)=O`, for which the midpoint of inhibition, the IC50, lay at 180 nM.

On to `[2H]C([2H])([2H])NC(=O)c1nnc(NC(=O)C2CC2)cc1Nc1ccccc1S(C)(=O)=O`, for which the IC50 was determined as 15 nM.

`CNC(=O)c1cnc(Nc2ccc(F)cn2)cc1Nc1ccccc1S(C)(=O)=O`: the IC50 turned out to be 230 nM.

As to `N#Cc1cc(Nc2cc(NC3CC3)c3ncc(C(N)=O)n3n2)cc(C(F)(F)F)c1`, the midpoint of inhibition, the IC50, lay at 8200 nM.

`[2H]C([2H])([2H])NC(=O)c1nnc(NC(=O)C2CC2)cc1Nc1cccc(-c2ncn(C)n2)c1OC` [Bms-986165] yielded an IC50 of 89 nM.

Usually IC50 stands for the concentration needed to halve the response being measured. High values mean a need for much substance, low ones inhibition by little substance.
